Assay results as given in EP4342530A1, “SORTILIN MODULATORS” (Insusense ApS, priority 2022, dated 2024).
pIC50: −log10 of the molar value.

Target: T1, h-Sortilin (Homo sapiens, UniProt Q99523)
T1 sequence (Q99523 78-831): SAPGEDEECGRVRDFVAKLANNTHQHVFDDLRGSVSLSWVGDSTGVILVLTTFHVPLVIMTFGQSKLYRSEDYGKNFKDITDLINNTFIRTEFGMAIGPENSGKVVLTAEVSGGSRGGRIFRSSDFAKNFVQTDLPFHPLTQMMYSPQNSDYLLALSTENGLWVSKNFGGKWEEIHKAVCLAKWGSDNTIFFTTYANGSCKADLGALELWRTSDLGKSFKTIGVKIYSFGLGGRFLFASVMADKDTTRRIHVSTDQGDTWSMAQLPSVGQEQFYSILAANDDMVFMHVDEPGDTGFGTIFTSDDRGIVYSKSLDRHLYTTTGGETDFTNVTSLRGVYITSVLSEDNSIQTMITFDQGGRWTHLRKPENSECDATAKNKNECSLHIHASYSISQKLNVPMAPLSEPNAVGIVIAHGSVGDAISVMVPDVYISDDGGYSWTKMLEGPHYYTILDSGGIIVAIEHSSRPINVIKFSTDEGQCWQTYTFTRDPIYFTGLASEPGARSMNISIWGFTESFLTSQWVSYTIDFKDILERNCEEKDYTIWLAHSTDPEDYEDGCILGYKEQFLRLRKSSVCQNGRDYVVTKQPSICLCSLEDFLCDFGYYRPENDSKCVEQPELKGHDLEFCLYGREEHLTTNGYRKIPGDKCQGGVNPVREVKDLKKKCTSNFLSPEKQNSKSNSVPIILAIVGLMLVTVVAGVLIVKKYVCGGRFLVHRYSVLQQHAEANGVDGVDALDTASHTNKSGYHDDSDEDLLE
Assay: Neurotensin scintillation proximity assay (displacement of [3H]-neurotensin binding)
Settings: 150 nM 6his-Sortilin, 5 nM [3H]-Neurotensin; average of at least 2 determinations; read-out: IC50 [3H]Neurotensin SPA
Procedure: The exemplified compounds of the invention were tested in a Neurotensin (NTS) scintillation proximity assay (SPA). NTS, which is a 13 amino acid neuropeptide, is a sortilin ligand. The IC50 is a measure of the amount of the compound required to inhibit the binding of NTS to sortilin by 50%. The skilled person will recognise that the lower the IC50 value, the less of the compound needed to achieve the desired effect, and as a result, the chances of undesirable off-target effects are reduced.
Compound affinity was determined by measuring the displacement of [3H]-neurotensin binding to h-Sortilin in SPA format. Total volume of 40 µl in 50 mM HEPES pH 7.4 assay buffer containing 100 mM NaCl, 2.0 mM CaCl2, 0.1% BSA and 0.1% Tween-20. Compound pre-incubation for 30 minutes at room temperature with 150 nM of 6his-Sortilin before 5 nM [3H]-Neurotensin and Ni chelate imaging beads (Perkin Elmer) were added, after 6 hours the plate was read on a ViewLux with 360 s exposure time. Dose-response evaluation of compounds was performed with 8 concentrations of drugs (covering 3 decades). IC50 values were calculated by nonlinear regression using the sigmoid concentration-response (variable slope) using CDD Vault software. All values reported are average of at least 2 determinations.

Row | Structure (SMILES) | pIC50
1 | CC(C)(C)CCC(N[C@@H](CCO)c1ccccc1)C(=O)O (mixture of isomers) [Example 39, 2-{[(1S)-3-hydroxy-1-phenylpropyl]amino}-5,5-dimethylhexanoic acid] | 6.39
2 | C[C@H](N[C@@H](CCC(C)(C)C)C(=O)O)c1ccc2c(c1)CCCC2 [Example 12] | 6.21
3 | CC(C)(C)CC[C@H](NCc1ccc2c(c1)CCNC2)C(=O)O [Example 15, (S)-5,5-dimethyl-2-(((1,2,3,4-tetrahydroisoquinolin-6-yl)methyl)amino)hexanoic acid] | 6.05
4 | CN1CCc2ccc(CN[C@@H](CCC(C)(C)C)C(=O)O)cc2C1 [Example 20, (2S)-5,5-dimethyl-2-{[(2-methyl-1,2,3,4-tetrahydroisoquinolin-7-yl)methyl]amino}hexanoic acid] | 6.33
5 | CN1CCc2ccc(CN[C@@H](CCC(C)(C)C)C(=O)O)cc2C1=O [Example 23, (2S)-5,5-dimethyl-2-{[(2-methyl-1-oxo-1,2,3,4-tetrahydroisoquinolin-7-yl)methyl]amino}hexanoic acid] | 6.37
6 | CN1CCc2cc(CN[C@@H](CCC(C)(C)C)C(=O)O)ccc2C1=O [Example 24, (2S)-5,5-dimethyl-2-{[(2-methyl-1-oxo-1,2,3,4-tetrahydroisoquinolin-6-yl)methyl]amino}hexanoic acid] | 6.20
7 | Cc1cc(CN[C@@H](CCC(C)(C)C)C(=O)O)cc2c1CCC2 [Example 26, (2S)-5,5-dimethyl-2-{[(7-methyl-2,3-dihydro-1H-inden-5-yl)methyl]amino}hexanoic acid] | 6.28
8 | CN1C(=O)CCc2cc(CN[C@@H](CCC(C)(C)C)C(=O)O)ccc21 [Example 27, (2S)-5,5-dimethyl-2-{[(1-methyl-2-oxo-1,2,3,4-tetrahydroquinolin-6-yl)methyl]amino}hexanoic acid] | 6.12
9 | CC(C)(C)CC[C@H](NCc1ccc2c(c1)NC(=O)CC2)C(=O)O [Example 29, (2S)-5,5-dimethyl-2-{[(2-oxo-1,2,3,4-tetrahydroquinolin-7-yl)methyl]amino}hexanoic acid] | 6.54
10 | CC(C)(C)CC[C@H](NCc1ccc2c(c1)CCC(=O)N2)C(=O)O [Example 31, (2S)-5,5-dimethyl-2-{[(2-oxo-1,2,3,4-tetrahydroquinolin-6-yl)methyl]amino}hexanoic acid] | 6.05
11 | CC(C)(C)CC[C@H](NCc1ccc2c(c1)N(C(=O)OC(C)(C)C)CCC2)C(=O)O [Example 32, (2S)-2-[({1-[(tert-butoxy)carbonyl]-1,2,3,4-tetrahydroquinolin-7-yl}methyl)amino]-5,5-dimethylhexanoic acid] | 6.89
12 | CC(C)(C)CC[C@H](NCc1cccc(-n2cncn2)c1)C(=O)O [Example 35, (2S)-5,5-dimethyl-2-({[3-(1H-1,2,4-triazol-1-yl)phenyl]methyl}amino)hexanoic acid] | 6.02
13 | CC(C)(C)CC[C@H](NCc1ccc(Oc2ccccc2)cc1)C(=O)O [Example 36] | 6.28
14 | CN(C)c1cccc(CN[C@@H](CCC(C)(C)C)C(=O)O)c1 [Example 37, (2S)-2-({[3-(dimethylamino)phenyl]methyl}amino)-5,5-dimethylhexanoic acid] | 6.24
15 | CC(C)(C)CC[C@H](N[C@H](CCO)c1ccccc1)C(=O)O [Example 40, (2S)-2-{[(1R)-3-hydroxy-1-phenylpropyl]amino}-5,5-dimethylhexanoic acid] | 5.19
16 | COc1cccc([C@H](CCO)N[C@@H](CCC(C)(C)C)C(=O)O)c1 [Example 41] | 6.12
17 | COc1cccc([C@@H](CCO)N[C@@H](CCC(C)(C)C)C(=O)O)c1 [Example 42] | 6.23
18 | CC(C)(C)CC[C@H](NCc1cnc2c(c1)CCCO2)C(=O)O [Example 53] | 6.24
19 | Cc1cc(CN[C@@H](CCC(C)(C)C)C(=O)O)cc2c1CCCO2 [Example 55] | 6.51
20 | C[C@H](N[C@@H](CCC(C)(C)C)C(=O)O)c1ccc2c(c1)OCCC2 [Example 57] | 6.52
21 | CC(C)(C)CC[C@H](NCc1cnc2c(c1)OCCO2)C(=O)O [Example 60] | 6.09
22 | CC(C)(C)CC[C@H](NCc1ccc2c(c1)OCC2)C(=O)O [Example 62] | 6.37

The remaining lines, values ahead:

Row | pIC50 | Structure (SMILES)
23 | 6.19 | CC(C)(C)CC[C@H](NCc1cccc2c1CCOC2)C(=O)O [Example 63]
24 | 6.38 | C[C@@H](N[C@@H](CCC(C)(C)C)C(=O)O)c1ccc2c(c1)COCC2 [Example 64]
25 | 6.21 | CC(C)(C)CC[C@H](NCc1cccc2c1COC2)C(=O)O [Example 65]
26 | 6.15 | CC(C)(C)CC[C@H](NCc1ccc2c(c1)CCO2)C(=O)O [Example 66]
27 | 6.30 | CC(C)(C)CC[C@H](NCc1cccc2c1COCC2)C(=O)O [Example 67]
28 | 6.23 | C[C@H](N[C@@H](CCC(C)(C)C)C(=O)O)c1ccc2c(c1)COCC2 [Example 69]
29 | 6.19 | C[C@H](N[C@@H](CCC(C)(C)C)C(=O)O)c1cccc2c1OCCO2 [Example 73]
30 | 6.07 | CC(C)(C)CC[C@H](NCc1cccc2c1CCC2)C(=O)O [Example 74]
31 | 5.91 | C[C@@H](N[C@@H](CCC(C)(C)C)C(=O)O)c1cccc2c1OCCO2 [Example 75]
32 | 6.46 | CC(C)(C)CC[C@H](NCc1cccc(N2CCCC2)c1)C(=O)O [Example 77]
